Laboratory results as given in publication PMC3914206.

Tests used:
Format in all cases: binding
Details in all cases: Compound Concentration 10 µM
panel of 442 kinases [1] = molecular target: T1, panel of 442 kinases (Homo sapiens, UniProt P11362)
T1 construct: purchased KINOMEscan
Excerpt: (§1) We assessed the selectivity of members of this scaffold using the KINOMEscan methodology across a near comprehensive panel of 442 kinases [[18,27]].

panel of 442 kinases [2] = molecular target: T2, panel of 442 kinases (Homo sapiens, UniProt P36888, N841I)
T2 construct: purchased KINOMEscan
T2 sequence (P36888 27-993 N841I): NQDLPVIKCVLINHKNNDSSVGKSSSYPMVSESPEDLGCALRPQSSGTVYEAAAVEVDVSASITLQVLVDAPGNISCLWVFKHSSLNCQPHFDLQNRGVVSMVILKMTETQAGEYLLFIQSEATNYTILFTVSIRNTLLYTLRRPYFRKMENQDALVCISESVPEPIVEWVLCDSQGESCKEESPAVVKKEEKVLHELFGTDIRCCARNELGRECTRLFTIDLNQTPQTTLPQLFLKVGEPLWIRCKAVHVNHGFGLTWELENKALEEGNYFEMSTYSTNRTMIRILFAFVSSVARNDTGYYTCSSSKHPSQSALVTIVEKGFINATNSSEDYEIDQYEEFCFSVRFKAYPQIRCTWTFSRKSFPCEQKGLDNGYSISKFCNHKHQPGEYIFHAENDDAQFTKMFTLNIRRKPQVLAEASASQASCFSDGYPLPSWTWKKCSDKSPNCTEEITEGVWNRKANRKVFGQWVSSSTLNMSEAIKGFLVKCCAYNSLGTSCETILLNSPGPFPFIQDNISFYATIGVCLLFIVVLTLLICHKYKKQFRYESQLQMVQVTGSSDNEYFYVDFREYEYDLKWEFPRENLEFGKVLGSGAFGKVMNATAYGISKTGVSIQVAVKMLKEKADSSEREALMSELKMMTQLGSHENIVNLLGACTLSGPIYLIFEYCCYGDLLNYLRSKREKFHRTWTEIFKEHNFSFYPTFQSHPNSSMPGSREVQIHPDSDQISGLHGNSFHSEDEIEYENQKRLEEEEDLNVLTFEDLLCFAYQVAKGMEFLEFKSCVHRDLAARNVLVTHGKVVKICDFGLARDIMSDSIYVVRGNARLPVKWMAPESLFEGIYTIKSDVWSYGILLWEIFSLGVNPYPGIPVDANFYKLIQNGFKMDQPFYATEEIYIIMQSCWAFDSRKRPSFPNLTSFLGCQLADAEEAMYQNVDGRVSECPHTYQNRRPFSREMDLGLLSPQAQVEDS
Excerpt: as §1

panel of 442 kinases [3] = molecular target: T3, panel of 442 kinases (Homo sapiens, UniProt P00533)
T3 construct: purchased KINOMEscan
T3 sequence (P00533 25-1210): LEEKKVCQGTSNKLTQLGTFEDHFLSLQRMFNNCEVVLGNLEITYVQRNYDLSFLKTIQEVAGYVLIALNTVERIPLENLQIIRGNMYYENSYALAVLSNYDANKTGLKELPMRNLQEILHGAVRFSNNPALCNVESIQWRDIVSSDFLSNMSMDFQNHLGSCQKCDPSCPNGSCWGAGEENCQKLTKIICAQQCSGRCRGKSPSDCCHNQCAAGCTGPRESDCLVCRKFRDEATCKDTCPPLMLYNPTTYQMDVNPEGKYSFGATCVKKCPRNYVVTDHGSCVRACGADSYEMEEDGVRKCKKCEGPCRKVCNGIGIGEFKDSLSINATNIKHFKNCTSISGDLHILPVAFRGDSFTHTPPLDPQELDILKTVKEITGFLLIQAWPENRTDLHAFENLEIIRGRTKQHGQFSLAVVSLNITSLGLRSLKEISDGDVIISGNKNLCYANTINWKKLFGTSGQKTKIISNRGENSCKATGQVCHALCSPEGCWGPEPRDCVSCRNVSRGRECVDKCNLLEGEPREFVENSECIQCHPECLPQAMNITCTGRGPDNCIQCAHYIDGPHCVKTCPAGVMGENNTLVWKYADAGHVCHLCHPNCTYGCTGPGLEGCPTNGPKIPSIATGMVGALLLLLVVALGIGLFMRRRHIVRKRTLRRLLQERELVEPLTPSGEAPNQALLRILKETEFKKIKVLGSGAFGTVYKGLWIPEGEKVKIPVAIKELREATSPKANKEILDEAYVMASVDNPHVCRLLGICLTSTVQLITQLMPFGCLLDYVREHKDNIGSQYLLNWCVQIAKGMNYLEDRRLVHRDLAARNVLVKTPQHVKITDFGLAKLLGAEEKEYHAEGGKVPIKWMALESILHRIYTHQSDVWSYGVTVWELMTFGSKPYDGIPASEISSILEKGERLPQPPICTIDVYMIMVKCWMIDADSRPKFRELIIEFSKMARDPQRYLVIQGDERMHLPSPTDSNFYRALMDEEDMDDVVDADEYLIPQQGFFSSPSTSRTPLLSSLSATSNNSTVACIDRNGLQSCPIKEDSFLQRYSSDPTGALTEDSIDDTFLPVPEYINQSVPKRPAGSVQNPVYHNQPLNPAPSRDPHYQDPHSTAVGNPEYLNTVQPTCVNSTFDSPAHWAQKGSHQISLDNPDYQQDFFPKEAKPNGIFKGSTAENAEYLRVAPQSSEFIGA
Excerpt: as §1

T1 sequence (P11362 22-822): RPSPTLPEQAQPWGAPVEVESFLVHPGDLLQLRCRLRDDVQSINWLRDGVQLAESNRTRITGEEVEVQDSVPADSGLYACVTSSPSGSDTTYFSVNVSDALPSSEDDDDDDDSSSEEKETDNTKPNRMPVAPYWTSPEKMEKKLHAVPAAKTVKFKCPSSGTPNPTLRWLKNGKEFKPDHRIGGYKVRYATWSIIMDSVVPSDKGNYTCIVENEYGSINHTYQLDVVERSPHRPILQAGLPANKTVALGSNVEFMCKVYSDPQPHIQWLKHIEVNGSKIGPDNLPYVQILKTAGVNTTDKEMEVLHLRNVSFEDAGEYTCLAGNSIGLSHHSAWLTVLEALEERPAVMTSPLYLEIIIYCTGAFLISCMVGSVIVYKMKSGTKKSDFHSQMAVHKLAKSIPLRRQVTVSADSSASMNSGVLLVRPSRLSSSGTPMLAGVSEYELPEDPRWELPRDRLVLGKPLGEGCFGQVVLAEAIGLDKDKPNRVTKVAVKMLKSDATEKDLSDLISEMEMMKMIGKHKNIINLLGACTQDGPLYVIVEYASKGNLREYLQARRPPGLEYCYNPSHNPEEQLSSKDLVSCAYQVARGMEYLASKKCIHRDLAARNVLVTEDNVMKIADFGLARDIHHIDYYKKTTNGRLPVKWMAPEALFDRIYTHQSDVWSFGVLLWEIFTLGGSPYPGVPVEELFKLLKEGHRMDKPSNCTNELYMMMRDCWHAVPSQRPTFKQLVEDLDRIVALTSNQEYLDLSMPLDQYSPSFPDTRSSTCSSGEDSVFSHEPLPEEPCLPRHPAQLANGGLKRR

| Structure (SMILES) | KINOMEscan: FGFR1 (panel of 442 kinases [1]) | KINOMEscan: FLT3(N841I) (panel of 442 kinases [2]) | KINOMEscan: EGFR (panel of 442 kinases [3]) |
| --- | --- | --- | --- |
| COc1cc(C(=O)N2CCC(N3CCN(C)CC3)CC2)ccc1Nc1ncc2c(n1)N1CCc3cccc(c31)C(=O)N2C [Compound 24] | 83 | 55 | 74 |
| CCOc1cc(C(=O)N2CCC(N3CCN(C)CC3)CC2)ccc1Nc1ncc2c(n1)N(C1CCCC1)c1ccccc1C(=O)N2C [Compound 26] | 100 | 100 | 100 |
| COc1cc(C(=O)N2CCC(N3CCN(C)CC3)CC2)ccc1Nc1ncc2c(n1)N(C1CCCC1)c1ccccc1C(=O)N2C [Compound 25, 11-cyclopentyl-2-((2-methoxy-4-(4-(4-methylpiperazin-1-yl)piperidine-1-carbonyl)phenyl)amino)-5-methyl-5H-benzo[e]pyrimido[5,4-b][1,4]diazepin-6(11H)-one] | 100 | 90 | 89 |
| COc1cc(C(=O)N2CCC(N3CCN(C)CC3)CC2)ccc1Nc1ncc2c(n1)N(C)c1ccccc1C(=O)N2C [15 (LRRK2-IN-1)] | 86 | 73 | 84 |
